Laboratory results from patent publication US12594292B2, “Antiviral prodrugs, intermediate-and long-acting formulations and methods” (priority 2022, dated 2026).
Like-named read-outs stand apart in the source and are kept apart here.

Experiments:
Huh7.5 [1] = assay: Cytotoxicity of cyanobenzyl analogs, Huh7.5
Huh7.5 [2] = assay: Antiviral evaluation of cyanobenzyl analogs, Huh7.5; format: cell-based
Calu 3 [3] = assay: Antiviral evaluation of cyanobenzyl analogs, Calu 3; format: cell-based
Calu 3 [4] = assay: Cytotoxicity of cyanobenzyl analogs, Calu 3
[5] = test system: SARS-CoV-2 isolate USA-WA1/2020; assay: SARS-CoV-2 infection in PSC-human lung cells, qRT-PCR (Example 7); format: cell-based; conditions: Severe acute respiratory syndrome coronavirus 2; PSC-human lung cells, MOI 0.01, 48 hours
[6] = test system: SARS-CoV-2 isolate USA-WA1/2020; assay: SARS-CoV-2 infection in Caco-2 cells, qRT-PCR (Example 7); format: cell-based; conditions: Severe acute respiratory syndrome coronavirus 2; Caco-2 cells, MOI 0.01, 48 hours
in vitro [7] = conditions: African green monkey
in vitro [8] = conditions: human
in vitro [9] = conditions: human; remark: listed apart in the source
in vitro [10] = conditions: human; remark: listed apart in the source
[11] = Seven day oral pharmacokinetics in Syrian hamsters; format: in vivo; conditions: after oral administration of ODBG-P-RVn
Procedure: ODBG-P-RVn in 0.1M sodium carbonate/bicarbonate buffer, pH 9.0, was administered to Syrian Hamsters by oral gavage every 12 hours for seven days. ODBG-P-RVn was present as the sodium salt.
FIG. 4A and FIG. 4B depict the seven day oral pharmacokinetics in Syrian hamsters. Syrian hamsters were given vehicle or ODBG-P-RVn by oral gavage every 12 hours for 7 days. Groups of 3 animals received vehicle or drug at doses of 16.9 and 13.2 mg/kg. Animals were weighed daily and monitored for clinical signs.
Analytical Methods: ODBG-P-RVn: Hamster plasma samples (10 μL) containing ODBG-P-RVn and K2EDTA as the anticoagulant were added to polypropylene tubes containing water (100 μL), internal standard solution (10 μL; 1,000 ng/mL of ODE-P-RVn in ACN:DMF (1:1, v/v)), and 10 μL of ACN:DMF (1:1, v/v). The solutions were mixed, then acidified with phosphoric acid, 85% w/v:water (1:19, v/v; 10 μL), mixed, then diluted with 200 μL of IPA, mixed, then diluted with 500 μL of water, and mixed. The samples were extracted with a Sep-Pak® tC18 96-well solid phase extraction plate (25 mg; Waters, Milford, MA). Extraction occurred under positive pressure conditions using nitrogen. Samples were washed serially with 1 mL of water:acetonitrile:formic acid (475:25:0.5, v/v/v) and 0.4 mL of water:acetonitrile:formic acid (350:150:0.5, v/v/v) before being serially eluted with 100 μL and 150 μL of water:{acetonitrile:isopropyl alcohol (1:1, v/v)}:formic acid:ammonium formate:citric acid solution, 2% w/v (15:85:0.1:0.1:0.1, v/v/v/w/v). The citric acid solution was prepared as water:citric acid monohydrate (20:0.4, v/w). After elution, 100 μL of water was added to each sample. The ODBG-P-RVn extracts were analyzed using an Agilent 1200 HPLC system (Agilent, Santa Clara, CA) coupled to an API5500 mass analyzer (SCIEX, Foster City, CA). Analytes were chromatographically separated using a Dacapo DX-C18 MF column (100×2 mm, 2.5 μm; ImtaktUSA, Portland, OR) using a mobile phase system consisting of Mobile Phase A (water:formic acid:[water:ammonium formate:citric acid (25:5:0.5, v/w/w)](1.000:1:1, v/v/v) and Mobile Phase B (acetonitrile:isopropyl alcohol:formic acid:[water:ammonium formate:citric acid (25:5:0.5, v/w/w)](800:200:1:1, v/v/v/v). The total analytical run time was 4.5 minutes. The mobile phase was nebulized using heated nitrogen in a Turbo-V source/interface set to electrospray positive ionization mode. The ionized compounds were detected using multiple reaction monitoring with transitions m/z 788.4>229 (V2043) and 668.4>467.2 (V2041). This method is applicable for measuring ODBG-P-RVn concentrations ranging from 6.25 to 3,000 ng/mL using 10.0 μL of plasma for extraction. The peak areas of ODBG-P-RVn and RVn were acquired using Analyst v. 1.6.2 (SCIEX, Framingham, MA). The calibration curve was obtained by fitting the peak area ratios of the analyte/I.S. and the standard concentrations to a linear equation with 1/x2 weighting, using Analyst. The equation of the calibration curve was then used to interpolate the concentrations of the analyte in the samples using their peak area ratios. The peak areas used for the calculations were not rounded.
The solutions were mixed and centrifuged at 16,000 g for five minutes. […] The GS-441524 extracts were analyzed using an Acquity UPLC system (Waters, Milford, MA) coupled to a G2-S QTof mass analyzer (Waters, Milford, MA). […]

in vitro [12] = conditions: human; remark: listed apart in the source
[13] = CellTiter-Glo luminescent cell viability assay, Vero E6 (Example 3); format: cell-based; conditions: African green monkey
Procedure: CellTiter-glo luminescent cell viability assay: Approximately 10^4 Vero E6 cells per well were seeded in opaque walled 96 well cell culture plates and incubated overnight. Compounds or controls were added at the indicated concentrations. […] Viability was calculated compared to untreated controls and CC50 values were calculated using Prism 8.
Determination of Cytotoxicity: The 50% cytotoxic concentrations (CC50) were determined with Cell Titer Glo (Cat. #G7570, Promega, Madison, WI) according to the manufacturer's instructions. The calculated CC50 values are shown in the foregoing table.
Relative viability was measured by CellTiter-Glo luminescent cell viability assay, as depicted at FIG. 2.

in vitro [14] = conditions: human; remark: listed apart in the source
in vitro [15] = conditions: human; remark: listed apart in the source

In the case of `CCCCCCCCCCCCCCCCCCOC[C@H](COP(=O)(O)OC[C@H]1O[C@@](C#N)(c2ccc3c(N)ncnn23)[C@H](O)[C@@H]1O)OCc1cccc(C#N)c1` [OD(3-CN-Bn)G-P-RVn, 1-O-Octadecyl-2-O-(3-cyanobenzyl)-sn-glyceryl-phospho-RVn], the CC50 (Huh7.5 [1]) is reported as 49600 nM, the SI (Huh7.5 [2]) is reported as 2066 and the EC50 (Huh7.5 [2]; read-out: EC50) is reported as 24 ± 6 nM. For the same compound, the EC90 (Huh7.5 [2]; read-out: EC90) was 77 ± 17 nM, the SI (Calu 3 [3]; Calu 3) was 1810 and the EC50 (Calu 3 [3]; Calu 3, read-out: EC50) was 34 ± 7 nM. The EC90 (Calu 3 [3]; Calu 3, read-out: EC90) was 65 ± 36 nM and the CC50 (Calu 3 [4]) was 61600 nM.
`N#C[C@@]1(c2ccc3c(N)ncnn23)O[C@H](CO)[C@@H](O)[C@H]1O` [RVn, 2-C-(4-aminopyrrolo[2,1-f][1,2,4]triazin-7-yl)-2,5-anhydro-D-altrononitrile, reference compound] showed an EC90 [5] of 2620 nM, an EC90 [6] of 1750 nM and a CC50 at 48.5 h (in vitro [7]) of over 100000 nM. For the same compound, the CC50 at 48.5 h (in vitro [8]) was over 100000 nM, the CC50 at 48.5 h (in vitro [9]) was over 100000 nM and the CC50 at 48.5 h (in vitro [10]) was over 100000 nM. For the same compound, the “plasma levels of RVn versus EC90 for RVn in PSC lung cells and Vero E6 cells” value [11] was “less than the EC90”, the “time of peak plasma levels of RVn, the nucleoside metabolite of ODBG-P-RVn” value [11] was 3 h and the CC50 at 48.5 h (in vitro [12]) was over 100000 nM. The CC50 at 48.5 h [13] was over 100000 nM.
`CCCCCCCCCCCCCCCCCCOC[C@H](COP(=O)(O)OC[C@H]1O[C@@](C#N)(c2ccc3c(N)ncnn23)[C@@H](O)C1O)OCc1ccccc1C#N` (some centres unmarked) [OD(2-CN-Bn)G-P-RVn, 1-O-Octadecyl-2-O-(2-cyanobenzyl)-sn-glyceryl-phospho-RVn] showed a CC50 (in vitro [14]) of over 100000 nM, an EC50 (Huh7.5 [2]) of 10.2 ± 17 nM and an EC90 (Huh7.5 [2]) of 281 ± 30 nM. The SI (Huh7.5 [2]) was over 980, the SI (Calu 3 [3]; Calu 3) was 909 and the EC50 (Calu 3 [3]; Calu-3) was 91 ± 25 nM. For the same compound, the EC90 (Calu 3 [3]; Calu-3) was 186 ± 47 nM and the CC50 (in vitro [15]) was 82800 nM.
